Reference: ChEMBL document CHEMBL1130930, “In vitro anti-human immunodeficiency virus (HIV) activity of the chromanone derivative, 12-oxocalanolide A, a novel NNRTI” (Bioorg Med Chem Lett, 1998)
The source made the active and inactive calls. No cut-off for these calls is given here.

How the values were obtained:
[1] = system: B-cell; assay: (§1) Compound was evaluated for the anti-HIV activity against HIV strain IIIB in AA5 EBV-infected B-cell; type: functional, cell-based; conditions: Homo sapiens
[2] = system: CEM-SS; assay: Compound was evaluated for the antiviral activity against HIV-2 strain ROD in CEM-SS cells; type: functional, Homo sapiens
[3] = system: CEM-SS; assay: (§2) Compound was evaluated for the antiviral activity against HIV-1 strain IIIB in CEM-SS cells; type: functional, cell-based, Homo sapiens
[4] = system: CEM-SS; assay: Compound was evaluated for the antiviral activity against HIV-1 strain RF in CEM-SS cells; type: functional, cell-based, Homo sapiens
[5] = system: CEM-SS; assay: Compound was evaluated for the antiviral activity against HIV-1 strain SK1 in CEM-SS cells; type: functional, cell-based, Homo sapiens
[6] = system: CEM-SS; assay: Compound was evaluated for the antiviral activity against SIV delta in CEM-SS cells; type: functional, cell-based, Homo sapiens
[7] = system: CCRF-CEM; assay: Compound was evaluated for the anti-HIV activity against HIV strain IIIB in CEM-SS T-cells; type: functional, cell-based; conditions: Homo sapiens
[8] = system: CCRF-CEM; assay: Compound was evaluated for the anti-HIV activity against HIV strain SK1 in CEM-SS T-cells; type: functional, cell-based, Homo sapiens
[9] = system: CCRF-CEM; assay: Compound was evaluated for the anti-HIV activity against HIV strain IIIB in 174 x CEM T-cell:B-cell fusion; type: functional, cell-based; conditions: Homo sapiens
[10] = system: Human immunodeficiency virus 1; assay: Compound was evaluated for the antiviral activity against compound resistant virus isolate L100I with amino acid changes in the HIV-1 reverse transcriptase (RT); type: functional, organism-based
[11] = system: Human immunodeficiency virus 1; assay: Compound was evaluated for the antiviral activity against compound resistant virus isolate M184I with amino acid changes in the HIV-1 reverse transcriptase (RT); type: functional, organism-based
[12] = system: Human immunodeficiency virus 1; assay: Compound was evaluated for the antiviral activity against compound resistant virus isolate P236L with amino acid changes in the HIV-1 reverse transcriptase (RT); type: functional, organism-based
[13] = system: Human immunodeficiency virus 1; assay: Compound was evaluated for the antiviral activity against compound resistant virus isolate T1391 with amino acid changes in the HIV-1 reverse transcriptase (RT); type: functional, organism-based
[14] = system: Human immunodeficiency virus 1; assay: Compound was evaluated for the antiviral activity against compound resistant virus isolate V1081 with amino acid changes in the HIV-1 reverse transcriptase (RT); type: functional, organism-based
[15] = system: Human immunodeficiency virus 1; assay: Compound was evaluated for the antiviral activity against compound resistant virus isolate Y181C with amino acid changes in the HIV-1 reverse transcriptase (RT); type: functional, organism-based
[16] = system: Human immunodeficiency virus 1; assay: Compound was evaluated for the antiviral activity against compound resistant virus isolate Y181C/K103N with amino acid changes in the HIV-1 reverse transcriptase (RT); type: functional, organism-based
[17] = system: Human immunodeficiency virus 1; assay: Compound was evaluated for the antiviral activity against compound resistant virus isolate Y188H with amino acid changes in the HIV-1 reverse transcriptase (RT); type: functional, organism-based
[18] = system: Human immunodeficiency virus 1; assay: Compound was evaluated for the antiviral activity against resistant virus isolate IIIB with amino acid changes in the HIV-1 reverse transcriptase (RT); type: functional, organism-based
[19] = system: Human immunodeficiency virus 1; assay: Compound was evaluated for the antiviral activity against compound resistant virus isolate 4 x AZT with amino acid changes in the HIV-1 reverse transcriptase (RT); type: functional, organism-based
[20] = system: Human immunodeficiency virus 1; assay: Compound was evaluated for the antiviral activity against compound resistant virus isolate K103N with amino acid changes in the HIV-1 reverse transcriptase (RT); type: functional, organism-based
[21] = system: MT2; assay: Compound was evaluated for the anti-HIV activity against HIV strain IIIB in MT2 T-cells; type: functional, cell-based, Homo sapiens
[22] = organism: Homo sapiens; assay: Compound was evaluated for the anti-HIV activity against HIV strain ADA in monocyte macrophages; type: functional, organism-based
[23] = organism: Homo sapiens; assay: Compound was evaluated for the anti-HIV activity against HIV strain BaL in monocyte macrophages; type: functional, organism-based
[24] = organism: Homo sapiens; assay: Compound was evaluated for the anti-HIV activity against HIV strain TEKI in fresh peripheral blood mononuclear cell (PBMC); type: functional, organism-based
[25] = organism: Homo sapiens; assay: Compound was evaluated for the anti-HIV activity against HIV strain ROJO in fresh peripheral blood mononuclear cell (PBMC); type: functional, organism-based
[26] = (§3) Compound was evaluated for the anti-HIV activity against HIV strain IIIB in U937 monocytic cell; type: functional, cell-based; conditions: Homo sapiens, U-937
[27] = Therapeutic index against HIV-1 strain IIIB in CEM-SS cells was expressed as IC50/EC50; type: cell-based, Human immunodeficiency virus 1; conditions: for TI: human immunodeficiency virus 1, cem-ss
[28] = Therapeutic index against HIV-1 strain RF in CEM-SS cells was expressed as IC50/EC50; type: organism-based, Human immunodeficiency virus 1; conditions: for TI: human immunodeficiency virus 1, cem-ss
[29] = Therapeutic index against HIV-1 strain SK1 in CEM-SS cells was expressed as IC50/EC50; type: cell-based, Human immunodeficiency virus 1; conditions: for TI: human immunodeficiency virus 1, cem-ss; for selectivity ratio: human immunodeficiency virus 1, CEM-SS cells infected with HIV-1 strain SK1, read-out: TI
[30] = Therapeutic index against HIV-2 strain ROD in CEM-SS cells was expressed as IC50/EC50; type: organism-based; conditions: human immunodeficiency virus 2, CEM-SS cells infected with HIV-2 strain ROD; read-out: TI
[31] = Therapeutic index against SIV delta in CEM-SS cells was expressed as IC50/EC50; type: cell-based; conditions: simian immunodeficiency virus; for TI: cem-ss
[32] = system: Human immunodeficiency virus 1; assay: Compound was evaluated for the antiviral activity against compound resistant virus isolate K101E with amino acid changes in the HIV-1 reverse transcriptase (RT); type: functional, organism-based
[33] = system: AA5; assay: as §1; type: functional, cell-based; conditions: Homo sapiens
[34] = system: CEM-SS; assay: Compound was evaluated for the anti-HIV activity against HIV strain IIIB in CEM-SS Value was expressed as EC50; type: functional, cell-based; conditions: Homo sapiens
[35] = Compound was evaluated for the anti-HIV activity against HIV strain BaL in monocyte; type: functional; conditions: Homo sapiens
[36] = organism: Homo sapiens; assay: Compound was evaluated for the anti-HIV activity against HIV strain TEKI in fresh peripheral blood mononuclear cell (PBMC). Value was expressed as EC50; type: functional, organism-based
[37] = system: U-937; assay: as §3; type: functional, cell-based; conditions: Homo sapiens
[38] = system: CEM-SS; assay: as §2; type: functional; conditions: Homo sapiens
[39] = system: Human immunodeficiency virus 1; assay: Compound was evaluated for the antiviral activity against compound resistant virus isolate K103E with amino acid changes in the HIV-1 reverse transcriptase (RT)
[40] = system: CEM-SS; assay: Compound was evaluated for the antiviral activity against HIV-1 strain SK1 in CEM-SS cells; IA: Inactive; type: functional, cell-based; conditions: Homo sapiens

CCCc1cc(=O)oc2c3c(c4c(c12)OC(C)(C)C=C4)O[C@H](C)[C@@H](C)C3=O (stereo in doubt; (+)-2)
EC50 [1]: > 10000 nM | EC25 [2]: 15900 nM | IC25 [2]: 34800 nM | EC50 ([3]; cem-ss): 1000 nM | EC50 ([4]; cem-ss): 900 nM | EC50 ([5]; cem-ss): 170 nM | EC50 ([6]; cem-ss): 1660 nM | EC50 [7]: 1090 nM | EC50 [8]: 620 nM | EC50 [9]: > 10000 nM | EC50 [10]: > 100000 nM | EC50 [11]: 60500 nM | EC50 [12]: 6760 nM | EC50 [13]: > 100000 nM | EC50 [14]: > 100000 nM | EC50 [15]: 2100 nM | EC50 [16]: 6190 nM | EC50 [17]: > 100000 nM | EC50 [18]: 1470 nM | EC50 ([19]; Human immunodeficiency virus 1): 2730 nM | EC50 [20]: 30600 nM | EC50 [21]: 2620 nM | EC50 [22]: 1760 nM | EC50 [23]: 2190 nM | EC50 [24]: > 10000 nM | EC50 ([25]; Homo sapiens): 2660 nM | EC50 [26]: > 10000 nM | TI [27]: > 10 | TI [28]: > 11 | TI [29]: > 58 | selectivity ratio [30]: 2 | TI [31]: 6 | EC50 [32]: 26400 nM

CCCc1cc(=O)oc2c3c(c4c(c12)OC(C)(C)C=C4)O[C@H](C)[C@@H](C)C3=O (racemic)
EC50 [33]: 2800 nM | EC25 [2]: 5570 nM | IC25 [2]: 13800 nM | EC50 [34]: 520 nM | EC50 ([3]; cem-ss): 510 nM | IC50 ([3]; cem-ss): 5600 nM | EC50 ([4]; cem-ss): 400 nM | IC50 ([4]; cem-ss): 5800 nM | IC50 ([5]; cem-ss): 6300 nM | IC50 ([6]; cem-ss): 6600 nM | EC50 [8]: 270 nM | EC50 [11]: 530 nM | EC50 [12]: 2030 nM | EC50 [15]: 590 nM | EC50 [18]: 320 nM | EC50 [19]: 3600 nM | EC50 [20]: > 100000 nM | EC50 [35]: 510 nM | EC50 [21]: 560 nM | EC50 [22]: 330 nM | EC50 [36]: > 10000 nM | EC50 [25]: 2180 nM | EC50 [37]: 3000 nM | TI [27]: 11 | TI [28]: 14 | TI [29]: 37 | TI [31]: 5 | EC50 [32]: > 100000 nM

Nc1ccn([C@H]2CC[C@@H](CO)O2)c(=O)n1 [ZALCITABINE]
EC25 ([2]; Homo sapiens, CEM-SS, read-out: EC25): 30 nM | IC25 ([2]; Homo sapiens, CEM-SS, read-out: IC25): > 10000 nM | EC50 ([3]; Homo sapiens, CEM-SS): 20 nM | EC50 ([4]; Homo sapiens, CEM-SS): 50 nM | IC50 ([4]; Homo sapiens, CEM-SS): > 5000 nM | EC50 ([5]; Homo sapiens, CEM-SS): 50 nM | IC50 ([5]; Homo sapiens, CEM-SS): > 5000 nM | EC50 ([6]; Homo sapiens, CEM-SS): 190 nM | IC50 ([6]; Homo sapiens, CEM-SS): > 5000 nM | EC25 [38]: > 5000 nM | selectivity ratio ([27]; human immunodeficiency virus 1, CEM-SS cells infected with HIV-1 strain IIIB, read-out: TI): > 250 | selectivity ratio ([28]; human immunodeficiency virus 1, CEM-SS cells infected with HIV-1 strain RF, read-out: TI): > 100 | selectivity ratio [29]: > 100 | selectivity ratio [30]: > 333 | selectivity ratio ([31]; CEM-SS cells infected with SIV delta, read-out: TI): > 26

Cc1cn([C@H]2C[C@H](N=[N+]=[N-])[C@@H](CO)O2)c(=O)[nH]c1=O [ZIDOVUDINE]
EC50 [10]: < 3 nM | EC50 ([11]; Human immunodeficiency virus 1): 10 nM | EC50 ([12]; Human immunodeficiency virus 1): […] | EC50 [13]: 40 nM | EC50 ([15]; Human immunodeficiency virus 1): 6 nM | EC50 [16]: < 30 nM | EC50 [17]: < 3 nM | EC50 ([18]; Human immunodeficiency virus 1): 9 nM | EC50 ([19]; Human immunodeficiency virus 1): > 1000 nM | EC50 [39]: 4 nM

CCCc1cc(=O)oc2c3c(c4c(c12)OC(C)(C)C=C4)O[C@H](C)[C@@H](C)[C@@H]3O [CALANOLIDE A]
EC25 [40]: inactive | EC50 ([3]; Homo sapiens, CEM-SS): 140 nM | EC50 ([4]; cem-ss): 170 nM

CCCc1cc(=O)oc2c3c(c4c(c12)OC(C)(C)C=C4)O[C@H](C)[C@@H](C)C3=O (stereo in doubt; (-)-2)
IC50 ([3]; Homo sapiens, CEM-SS): > 10000 nM | EC50 ([3]; cem-ss): 1880 nM | IC50 ([4]; Homo sapiens, CEM-SS): > 10000 nM | EC50 ([4]; cem-ss): 3410 nM | EC50 ([5]; Homo sapiens, CEM-SS): 270 nM | IC50 ([5]; Homo sapiens, CEM-SS): > 10000 nM | IC50 ([6]; Homo sapiens, CEM-SS): > 10000 nM | EC50 ([6]; cem-ss): 6120 nM | TI [27]: > 5 | TI [28]: > 3 | selectivity ratio [29]: > 37 | TI [31]: 2
